The values below come from the OligoGym collection.

HELM strings list units from the 5' end as sugar, base in round brackets, then linkage (d deoxyribose, r ribose, m 2'-O-methyl, p phosphodiester). Strings are as the collection lists them; they lack the last nucleoside at the 3' end of the tested compound. [moe] = 2'-O-(2-methoxyethyl) (MOE); [sp] = phosphorothioate linkage; [m5C] = 5-methylcytosine

The series concerns the target UBE3A-ATS. The experiment in a line: mouse, dose not given. The settings on record: ASO.

On to “RNA1{[moe](G)[sp].[moe]([m5C])p.[moe]([m5C])p.[moe](A)p.[moe](G)p.[moe](G)p.d(T)[sp].d(G)[sp].d(T)[sp].d([m5C])[sp].d(T)[sp].d(T)[sp].d(A)[sp].d(T)[sp].d(A)[sp].d(T)[sp].[moe]([m5C])p.[moe](T)[sp].[moe](A)}$$$$ (last 3' nucleoside missing)”, for which the 3 h FOB score was 0 score 0-7.

On to “RNA1{[moe](G)[sp].[moe]([m5C])p.[moe]([m5C])p.[moe](A)p.[moe](G)p.d(G)[sp].d(T)[sp].d(G)[sp].d(T)[sp].d([m5C])[sp].d(T)[sp].d(T)[sp].d(A)[sp].d(T)[sp].d(A)[sp].[moe](T)p.[moe]([m5C])p.[moe](T)[sp].[moe](A)}$$$$ (last 3' nucleoside missing)”, for which the 3 h FOB score is 0 score 0-7.

“RNA1{[moe](G)[sp].[moe]([m5C])p.[moe]([m5C])p.[moe](A)p.d(G)[sp].d(G)[sp].d(T)[sp].d(G)[sp].d(T)[sp].d([m5C])[sp].d(T)[sp].d(T)[sp].d(A)[sp].d(T)[sp].[moe](A)p.[moe](T)p.[moe]([m5C])p.[moe](T)[sp].[moe](A)}$$$$ (last 3' nucleoside missing)” gave a 3 h FOB score of 1 score 0-7.

“RNA1{[moe](G)[sp].[moe]([m5C])p.[moe]([m5C])p.[moe](T)p.[moe](G)p.d([m5C])[sp].d(T)[sp].d([m5C])[sp].d(A)[sp].d(A)[sp].d(A)[sp].d(T)[sp].d([m5C])[sp].d(T)[sp].d(G)[sp].[moe]([m5C])p.[moe](G)p.[moe](A)[sp].[moe](A)}$$$$ (last 3' nucleoside missing)” gave a 3 h FOB score of 2 score 0-7.

Substance “RNA1{[moe](G)[sp].[moe]([m5C])p.[moe]([m5C])p.[moe](T)p.[moe](T)p.d(T)[sp].d([m5C])[sp].d(T)[sp].d(A)[sp].d(T)[sp].d(T)[sp].d(T)[sp].d([m5C])[sp].d(A)[sp].d(G)[sp].[moe](A)p.[moe]([m5C])p.[moe]([m5C])[sp].[moe](G)}$$$$ (last 3' nucleoside missing)” yielded a 3 h FOB score of 1 score 0-7.

Consider “RNA1{[moe](T)[sp].[moe](A)p.[moe](A)p.[moe](A)p.[moe](A)p.d(T)[sp].d([m5C])[sp].d([m5C])[sp].d(A)[sp].d(T)[sp].d(T)[sp].d(T)[sp].d(G)[sp].d(T)[sp].d([m5C])[sp].[moe]([m5C])p.[moe](A)p.[moe](G)[sp].[moe](T)}$$$$ (last 3' nucleoside missing)”, for which the 3 h FOB score was 3.3 score 0-7.

Substance “RNA1{[moe](T)[sp].[moe](A)p.[moe](A)p.[moe](A)p.[moe](A)p.d([m5C])[sp].d(G)[sp].d([m5C])[sp].d(A)[sp].d(A)[sp].d(T)[sp].d(G)[sp].d(T)[sp].d(A)[sp].d(T)[sp].[moe]([m5C])p.[moe](A)p.[moe](G)[sp].[moe](G)}$$$$ (last 3' nucleoside missing)” registered a 3 h FOB score of 1 score 0-7.

“RNA1{[moe](T)[sp].[moe](A)p.[moe](A)p.[moe](G)p.[moe](G)p.d(T)[sp].d([m5C])[sp].d(T)[sp].d(G)[sp].d(T)[sp].d(T)[sp].d(A)[sp].d(T)[sp].d(T)[sp].d([m5C])[sp].[moe](T)p.[moe]([m5C])p.[moe]([m5C])[sp].[moe]([m5C])}$$$$ (last 3' nucleoside missing)”: the 3 h FOB score was determined as 0.8 score 0-7.

Regarding “RNA1{[moe](T)[sp].[moe](A)p.[moe](A)p.[moe](G)p.[moe](T)p.d(A)[sp].d(T)[sp].d(A)[sp].d(G)[sp].d(A)[sp].d(T)[sp].d(G)[sp].d([m5C])[sp].d([m5C])[sp].d(T)[sp].[moe]([m5C])p.[moe](T)p.[moe]([m5C])[sp].[moe]([m5C])}$$$$ (last 3' nucleoside missing)”, the 3 h FOB score turned out to be 3.7 score 0-7.

As to “RNA1{[moe](T)[sp].[moe](A)p.[moe](A)p.[moe]([m5C])p.[moe](T)p.d(G)[sp].d([m5C])[sp].d(T)[sp].d(T)[sp].d([m5C])[sp].d(A)[sp].d([m5C])[sp].d([m5C])[sp].d(A)[sp].d(T)[sp].[moe](T)p.[moe](T)p.[moe](T)[sp].[moe](G)}$$$$ (last 3' nucleoside missing)”, the 3 h FOB score stood at 0 score 0-7.

Regarding “RNA1{[moe](T)[sp].[moe](A)p.[moe](G)p.[moe](A)p.[moe](T)p.d(T)[sp].d(G)[sp].d(G)[sp].d(G)[sp].d([m5C])[sp].d(T)[sp].d(T)[sp].d(T)[sp].d(A)[sp].d(G)[sp].[moe](A)p.[moe](G)p.[moe](G)[sp].[moe](T)}$$$$ (last 3' nucleoside missing)”, the 3 h FOB score turned out to be 5 score 0-7.

“RNA1{[moe](T)[sp].[moe](A)p.[moe](G)p.[moe](G)p.[moe](G)p.d(T)[sp].d(G)[sp].d(G)[sp].d(T)[sp].d(T)[sp].d(G)[sp].d(G)[sp].d(T)[sp].d(T)[sp].d([m5C])[sp].[moe](A)p.[moe](A)p.[moe](A)[sp].[moe](A)}$$$$ (last 3' nucleoside missing)” had a 3 h FOB score of 5.7 score 0-7.

Take “RNA1{[moe](T)[sp].[moe](A)p.[moe](G)p.[moe](G)p.[moe](T)p.[moe]([m5C])p.d(A)[sp].d(A)[sp].d([m5C])[sp].d([m5C])[sp].d(A)[sp].d(A)[sp].d(T)[sp].d(T)[sp].d(T)[sp].d(G)[sp].[moe]([m5C])p.[moe](T)[sp].[moe](A)}$$$$ (last 3' nucleoside missing)”: the 3 h FOB score is 5 score 0-7.

“RNA1{[moe](T)[sp].[moe](A)p.[moe](G)p.[moe](G)p.[moe](T)p.d([m5C])[sp].d(A)[sp].d(A)[sp].d([m5C])[sp].d([m5C])[sp].d(A)[sp].d(A)[sp].d(T)[sp].d(T)[sp].d(T)[sp].[moe](G)p.[moe]([m5C])p.[moe](T)[sp].[moe](A)}$$$$ (last 3' nucleoside missing)” had a 3 h FOB score of 0 score 0-7.

As for “RNA1{[moe](T)[sp].[moe](A)p.[moe](G)p.[moe](G)p.[moe]([m5C])p.d(T)[sp].d(G)[sp].d(G)[sp].d(G)[sp].d([m5C])[sp].d([m5C])[sp].d(T)[sp].d([m5C])[sp].d(A)[sp].d(G)[sp].[moe]([m5C])p.[moe](G)p.[moe](T)[sp].[moe](A)}$$$$ (last 3' nucleoside missing)”, the 3 h FOB score stood at 3.5 score 0-7.

The substance “RNA1{[moe](T)[sp].[moe](A)p.[moe](G)p.[moe](G)p.d(T)[sp].d([m5C])[sp].d(A)[sp].d(A)[sp].d([m5C])[sp].d([m5C])[sp].d(A)[sp].d(A)[sp].d(T)[sp].d(T)[sp].[moe](T)p.[moe](G)p.[moe]([m5C])p.[moe](T)[sp].[moe](A)}$$$$ (last 3' nucleoside missing)” yielded a 3 h FOB score of 0 score 0-7.

“RNA1{[moe](T)[sp].[moe](A)p.[moe](G)p.[moe](T)p.[moe](T)p.d(T)[sp].d([m5C])[sp].d(A)[sp].d([m5C])[sp].d([m5C])[sp].d(G)[sp].d(A)[sp].d(A)[sp].d(A)[sp].d(G)[sp].[moe](T)p.[moe](A)p.[moe]([m5C])[sp].[moe](A)}$$$$ (last 3' nucleoside missing)” yielded a 3 h FOB score of 2.5 score 0-7.

On to “RNA1{[moe](T)[sp].[moe](A)p.[moe](G)p.[moe](T)p.[moe]([m5C])p.d(T)[sp].d(A)[sp].d(A)[sp].d(G)[sp].d(G)[sp].d([m5C])[sp].d(A)[sp].d(G)[sp].d(T)[sp].d([m5C])[sp].[moe](A)p.[moe](G)p.[moe](G)[sp].[moe](G)}$$$$ (last 3' nucleoside missing)”, for which the 3 h FOB score amounted to 6 score 0-7.

“RNA1{[moe](T)[sp].[moe](A)p.[moe](T)p.[moe](A)p.[moe](G)p.d(G)[sp].d(G)[sp].d(T)[sp].d(G)[sp].d(G)[sp].d(T)[sp].d(T)[sp].d(G)[sp].d(G)[sp].d(T)[sp].[moe](T)p.[moe]([m5C])p.[moe](A)[sp].[moe](A)}$$$$ (last 3' nucleoside missing)” returned a 3 h FOB score of 6 score 0-7.

“RNA1{[moe](T)[sp].[moe](A)p.[moe](T)p.[moe](G)p.[moe](T)p.d(A)[sp].d(G)[sp].d([m5C])[sp].d(T)[sp].d([m5C])[sp].d(A)[sp].d(G)[sp].d([m5C])[sp].d(T)[sp].d([m5C])[sp].[moe](A)p.[moe](A)p.[moe](T)[sp].[moe](G)}$$$$ (last 3' nucleoside missing)” came in with a 3 h FOB score of 1 score 0-7.

“RNA1{[moe](T)[sp].[moe](A)p.[moe](T)p.[moe](T)p.[moe](G)p.[moe](G)p.d(T)[sp].d([m5C])[sp].d(A)[sp].d(T)[sp].d([m5C])[sp].d(T)[sp].d([m5C])[sp].d(G)[sp].d(G)[sp].d(G)[sp].[moe](T)p.[moe](A)[sp].[moe](T)}$$$$ (last 3' nucleoside missing)”: the 3 h FOB score was found to be 4 score 0-7.

Regarding “RNA1{[moe](T)[sp].[moe](A)p.[moe](T)p.[moe](T)p.[moe](G)p.d(G)[sp].d(T)[sp].d([m5C])[sp].d(A)[sp].d(T)[sp].d([m5C])[sp].d(T)[sp].d([m5C])[sp].d(G)[sp].d(G)[sp].[moe](G)p.[moe](T)p.[moe](A)[sp].[moe](T)}$$$$ (last 3' nucleoside missing)”, the 3 h FOB score came out at 3.3 score 0-7.

The substance “RNA1{[moe](T)[sp].[moe](A)p.[moe](T)p.[moe](T)p.[moe](G)p.d([m5C])[sp].d([m5C])[sp].d(T)[sp].d(T)[sp].d([m5C])[sp].d(A)[sp].d([m5C])[sp].d(T)[sp].d(G)[sp].d([m5C])[sp].[moe](T)p.[moe](G)p.[moe]([m5C])[sp].[moe]([m5C])}$$$$ (last 3' nucleoside missing)” yielded a 3 h FOB score of 3.2 score 0-7.

Consider “RNA1{[moe](T)[sp].[moe](A)p.[moe](T)p.[moe](T)p.d(G)[sp].d(G)[sp].d(T)[sp].d([m5C])[sp].d(A)[sp].d(T)[sp].d([m5C])[sp].d(T)[sp].d([m5C])[sp].d(G)[sp].[moe](G)p.[moe](G)p.[moe](T)p.[moe](A)[sp].[moe](T)}$$$$ (last 3' nucleoside missing)”, for which the 3 h FOB score came out at 4 score 0-7.

“RNA1{[moe](T)[sp].[moe](G)[sp].[moe]([m5C])[sp].[moe]([m5C])[sp].[moe](A)[sp].d(T)[sp].d([m5C])[sp].d(T)[sp].d(T)[sp].d([m5C])[sp].d(A)[sp].d(A)[sp].d(G)[sp].d(A)[sp].d([m5C])[sp].[moe](T)[sp].[moe](A)[sp].[moe](A)[sp].[moe](G)}$$$$ (last 3' nucleoside missing)”: the 3 h FOB score was 6.8 score 0-7.
